Results on eleven molecules are retold here after PubChem BioAssay (NCI).

Molecules are shown by their SMILES.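 Compound exposure: 48 hours, 5 concentrations, 96-well plates. At the GI50, growth is halved. At the TGI there is no net growth.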

Test systems include CAKI-1 renal; SK-OV-3 ovarian; NCI-H460 lung; IGROV1 ovarian; K-562 leukemia; UO-31 renal; MDA-MB-435; M14 melanoma; NCI-H226 lung; RPMI-8226 leukemia.
Experiment in all cases: NCI anticancer screen, dose series, 48 h

As for `ClCc1ccc(Cn2cnc3c(Cl)nc(Cl)nc32)cc1`, the GI50 in the test with CAKI-1 renal was 9.17 µM; in the test on SK-OV-3 ovarian, 13.3 µM; in the test with NCI-H460 lung, 2.39 µM; in the test with IGROV1 ovarian, 15.3 µM; in the test on K-562 leukemia, 23.3 µM; in the test on UO-31 renal, 19.3 µM. The GI50 in the test on MDA-MB-435 was 12.6 µM; with M14 melanoma, 10.8 µM; with NCI-H226 lung it was 3.55 µM. The TGI came out at 21.3 µM in the test with CAKI-1 renal; 29.6 µM in the test with SK-OV-3 ovarian; 4.92 µM with NCI-H460 lung; 30.4 µM with IGROV1 ovarian; 66.5 µM in the test with K-562 leukemia; 35.5 µM with UO-31 renal. In addition, the TGI was found to be 25.1 µM in the test on MDA-MB-435, 24.1 µM with M14 melanoma and 9.63 µM with NCI-H226 lung.

As to `COc1cc2c3c(n(CCCN=[N+]=[N-])c(=O)c2cc1OC)-c1ccc(N(C)C)cc1C3=O`, the GI50 in the test with SK-OV-3 ovarian, in the test on NCI-H460 lung, in the test on IGROV1 ovarian, in the test with K-562 leukemia, in the test on RPMI-8226 leukemia and in the test on UO-31 renal was above 100 µM each time. In addition, the GI50 in the test on MDA-MB-435, in the test on M14 melanoma and with NCI-H226 lung was above 100 µM throughout. Moreover, the TGI in the test on SK-OV-3 ovarian, with NCI-H460 lung, in the test with IGROV1 ovarian, in the test with K-562 leukemia, with RPMI-8226 leukemia and with UO-31 renal was above 100 µM throughout. In addition, the TGI with MDA-MB-435, in the test on M14 melanoma and in the test on NCI-H226 lung was above 100 µM throughout.

As to `Oc1ccc(Cl)cc1CNc1nc2ccccc2[nH]1`, the GI50 in the test on CAKI-1 renal is 11.4 µM; with SK-OV-3 ovarian it was 16.8 µM; in the test on NCI-H460 lung it was 12.5 µM; in the test with IGROV1 ovarian, 18.3 µM; in the test with K-562 leukemia it was 15.4 µM; in the test with RPMI-8226 leukemia it was 10 µM. Moreover, the GI50 in the test with UO-31 renal is 4.73 µM; in the test with MDA-MB-435, 13.2 µM; with NCI-H226 lung it was 19.6 µM. Besides, the TGI with CAKI-1 renal turned out to be 28.1 µM; in the test with SK-OV-3 ovarian it was 34.8 µM; in the test with NCI-H460 lung, 26.3 µM; in the test on IGROV1 ovarian, 41.3 µM; in the test with K-562 leukemia, 56 µM; with RPMI-8226 leukemia it was 49.5 µM. Also, the TGI turned out to be 19.1 µM with UO-31 renal, 26.2 µM in the test with MDA-MB-435 and 50.2 µM with NCI-H226 lung.

Regarding `O=C(Nc1ccc(Cl)c(Cl)c1)OCCN1c2ccccc2Sc2ccccc21`, the TGI in the test with CAKI-1 renal, in the test with SK-OV-3 ovarian, in the test with IGROV1 ovarian, with K-562 leukemia, in the test with RPMI-8226 leukemia and with MDA-MB-435 was above 10 µM each time. Further, the TGI in the test on M14 melanoma is above 10 µM.

Take `C=CS(=O)(=O)CCN1CC1`: the TGI with CAKI-1 renal, in the test on SK-OV-3 ovarian, with IGROV1 ovarian, in the test with K-562 leukemia, in the test on RPMI-8226 leukemia and with MDA-MB-435 was above 10 µM in each case. The same molecule gave a TGI in the test with M14 melanoma above 10 µM.

With `C=C1[C@@H]([C@@]2(C)C=CC(=O)C(C)(C)[C@@H]2CC(=O)OC)CC[C@@]2(C)C(c3ccoc3)OC(=O)[C@H]3O[C@]132` (stereo partly drawn), the TGI in the test on CAKI-1 renal, with SK-OV-3 ovarian, in the test with NCI-H460 lung, in the test with IGROV1 ovarian, with UO-31 renal and in the test on MDA-MB-435 was above 100 µM throughout. The TGI with M14 melanoma and with NCI-H226 lung was above 100 µM in each case.

As to `COC(=O)C1=CC2OC1(C)CCC2=O` (stereo not drawn), the TGI with CAKI-1 renal, with SK-OV-3 ovarian, in the test with NCI-H460 lung, in the test with IGROV1 ovarian, with K-562 leukemia and in the test with RPMI-8226 leukemia was above 100 µM throughout. For the same molecule, the TGI in the test with UO-31 renal, in the test on M14 melanoma and with NCI-H226 lung was above 100 µM each time.

Take `O=C(NO)c1ccc(O)c(O)c1`: the TGI in the test with CAKI-1 renal is above 100 µM; with SK-OV-3 ovarian, above 100 µM; in the test on NCI-H460 lung, above 100 µM; with IGROV1 ovarian it was above 100 µM; in the test with K-562 leukemia it was 93.8 µM; in the test with RPMI-8226 leukemia it was above 100 µM. Moreover, the TGI in the test on UO-31 renal, in the test on M14 melanoma and in the test on NCI-H226 lung was above 100 µM each time.

For the molecule `COc1ccc(OC)c(Nc2nc(-c3c(C)nc4sccn34)cs2)c1`, the GI50 in the test with SK-OV-3 ovarian was 24.6 µM; in the test on NCI-H460 lung it was above 100 µM; in the test with IGROV1 ovarian, 23.2 µM; in the test on RPMI-8226 leukemia, 8.91 µM; in the test on UO-31 renal it was 29 µM; in the test on MDA-MB-435 it was above 100 µM. Also, the GI50 with M14 melanoma was above 100 µM; with NCI-H226 lung it was 19.2 µM. The TGI in the test on SK-OV-3 ovarian, in the test with NCI-H460 lung, in the test on IGROV1 ovarian, in the test with RPMI-8226 leukemia, in the test with UO-31 renal and in the test with MDA-MB-435 was above 100 µM throughout. Besides, the TGI in the test on M14 melanoma and in the test on NCI-H226 lung was above 100 µM each time.

`O=C(NS(=O)(=O)c1ccccc1)C(Cc1ccccc1)C(Cc1ccccc1)C(=O)NS(=O)(=O)c1ccccc1` (stereo not drawn): the TGI in the test with CAKI-1 renal, in the test on SK-OV-3 ovarian, with NCI-H460 lung, in the test with IGROV1 ovarian, in the test with K-562 leukemia and in the test on RPMI-8226 leukemia was above 100 µM each time. Further, the TGI in the test with UO-31 renal, in the test with M14 melanoma and in the test with NCI-H226 lung was above 100 µM each time.

With `COC1=C2CC(C)CC(OC)C(O)C(C)/C=C(\C)C(OC(N)=O)C(OC)/C=C\C=C(/C)C(=O)NC(=C(/C=N/N3CCCCC3)C1=O)C2=O` (stereo not drawn), the TGI came out at 37 µM in the test on CAKI-1 renal; 55.7 µM in the test on SK-OV-3 ovarian; 57.1 µM in the test on NCI-H460 lung; 27 µM in the test on IGROV1 ovarian; 21.6 µM with K-562 leukemia; 42 µM in the test on RPMI-8226 leukemia. The TGI with UO-31 renal was 23.4 µM; in the test with M14 melanoma it was 37.4 µM; in the test on NCI-H226 lung, 34.5 µM.
